Results as given in paper PMC6045899 (International Journal of Nanomedicine, 2018).

Columns and labels:
[1] = In vivo pharmacokinetics after iv administration in AMI rats; settings: plasma concentration–time profile
AMI rats = system: AMI rats; design: species or system Sprague Dawley rats; settings: rat, in vivo, 50 mg/kg
[2] = system: PC cells (primary cardiac cells); experiment: In vitro cytotoxicity, MTT bioassay; format: cell-based, Wistar rats; settings: 1–200 μM, 24 h

SMILES: Cc1coc2c1C(=O)C(=O)c1c-2ccc2c1CCCC2(C)C [Free TN, tanshinone IIA]
- time within which cleared from the circulation [1]: ≤ 6 h
- infarct size (percentage of whole size of the left ventricle) (AMI rats): 51%±1.8%
- in vitro cytotoxicity (in words) [2]: obvious higher cytotoxicity than the nanocarriers in high concentrations (100 and 200 μM)
